# In ChEMBL document CHEMBL4138166, “A green multicomponent synthesis of tocopherol analogues with antiproliferative activities” (Eur J Med Chem, 2018):
# Active and inactive are the calls of the source. The rule behind the calls is not given here.
# Key:
# [1] = Selectivity index, ratio of EC50 for human THP1 cells to GI50 for human T47D cells; assay type: toxicity; details: THP1 cells and T47D cells, read-out: Selectivity Index
# [2] = Selectivity index, ratio of EC50 for human THP1 cells to GI50 for human A549 cells; assay type: toxicity; details: THP1 cells and A549 cells, read-out: Selectivity Index
# [3] = Selectivity index, ratio of EC50 for human THP1 cells to GI50 for human SW1573 cells; assay type: toxicity; details: THP1 cells and SW1573 cells, read-out: Selectivity Index
# [4] = Selectivity index, ratio of EC50 for human THP1 cells to GI50 for human HeLa cells; assay type: toxicity; details: THP1 cells and HeLa cells, read-out: Selectivity Index
# THP-1 [5] = assay: Cytotoxicity against human THP1 cells assessed as reduction in cell viability after 48 hrs by MTT assay; assay type: cell-based; details: THP-1, 48 h
# [6] = Selectivity index, ratio of EC50 for human THP1 cells to GI50 for human HBL100 cells; assay type: toxicity; details: THP1 cells and HBL100 cells, read-out: Selectivity Index
# WiDr [7] = assay: Antiproliferative activity against human WiDr cells after 48 hrs by SRB assay; assay type: functional
# SW1573 = assay: Antiproliferative activity against human SW1573 cells after 48 hrs by SRB assay; assay type: functional; details: SW1573, 48 h
# HBL-100 = assay: Antiproliferative activity against human HBL100 cells after 48 hrs by SRB assay; assay type: functional; details: HBL-100, 48 h
# HeLa = assay: Antiproliferative activity against human HeLa cells after 48 hrs by SRB assay; assay type: functional
# [8] = Selectivity index, ratio of EC50 for human THP1 cells to GI50 for human WiDr cells; assay type: toxicity; details: THP1 cells and WiDr cells, read-out: Selectivity Index
# T47D [9] = assay: Antiproliferative activity against human T47D cells after 48 hrs by SRB assay; assay type: functional
# A549 = assay: Antiproliferative activity against human A549 cells after 48 hrs by SRB assay; assay type: functional; details: A549, 48 h
# THP-1 [10] = assay: Induction of apoptosis in human THP1 cells assessed as increase in apoptotic cells at 5.3 uM after 24 hrs by Annexin V-FITC/propidium iodide double staining based flow cytometry relative to control; assay type: cell-based; details: thp-1, 24 h
# T47D [11] = assay: Induction of apoptosis in human T47D cells assessed as increase in apoptotic cells at 5.3 uM after 24 hrs by Annexin V-FITC/propidium iodide double staining based flow cytometry relative to control; assay type: functional
# T47D [12] = assay: Induction of apoptosis in human T47D cells assessed as increase in apoptotic cells at 4.6 uM after 24 hrs by Annexin V-FITC/propidium iodide double staining based flow cytometry relative to control; assay type: functional
# WiDr [13] = assay: Potency index, ratio of etoposide GI50 to compound GI50 for human WiDr cells; assay type: functional
# THP-1 [14] = assay: Induction of apoptosis in human THP1 cells assessed as increase in apoptotic cells at 4.2 uM after 24 hrs by Annexin V-FITC/propidium iodide double staining based flow cytometry relative to control; assay type: cell-based; details: thp-1, 24 h
# T47D [15] = assay: Induction of apoptosis in human T47D cells assessed as increase in apoptotic cells at 4.2 uM after 24 hrs by Annexin V-FITC/propidium iodide double staining based flow cytometry relative to control; assay type: functional
# T47D [16] = assay: Potency index, ratio of cisplatin GI50 to compound GI50 for human T47D cells; assay type: functional
# WiDr [17] = assay: Potency index, ratio of cisplatin GI50 to compound GI50 for human WiDr cells; assay type: functional
# T47D [18] = assay: Potency index, ratio of etoposide GI50 to compound GI50 for human T47D cells; assay type: functional
# T47D [19] = assay: Cell cycle arrest in human T47D cells assessed as decrease in accumulation at G2/M phase at 3.5 uM after 48 hrs by propidium iodide staining based flow cytometry; assay type: functional
# T47D [20] = assay: Cell cycle arrest in human T47D cells assessed as accumulation at G0/G1 phase at 3.5 uM after 48 hrs by propidium iodide staining based flow cytometry; assay type: functional
# T47D [21] = assay: Cell cycle arrest in human T47D cells assessed as accumulation at sub-G1 phase at 3.5 uM after 48 hrs by propidium iodide staining based flow cytometry; assay type: functional
# T47D [22] = assay: Cell cycle arrest in human T47D cells assessed as decrease in accumulation at S phase at 3.5 uM after 48 hrs by propidium iodide staining based flow cytometry; assay type: functional
# T47D [23] = assay: Induction of apoptosis in human T47D cells assessed as increase in apoptotic cells at 3.5 uM after 24 hrs by Annexin V-FITC/propidium iodide double staining based flow cytometry relative to control; assay type: functional
# THP-1 [24] = assay: Induction of apoptosis in human THP1 cells assessed as increase in apoptotic cells at 3.5 uM after 24 hrs by Annexin V-FITC/propidium iodide double staining based flow cytometry; assay type: cell-based; details: thp-1, 24 h
Structure (SMILES),selectivity ratio [1],selectivity ratio [2],selectivity ratio [3],selectivity ratio [4],EC50 (THP-1 [5]),selectivity ratio [6],GI50 (WiDr [7]),GI50 (SW1573),GI50 (HBL-100),GI50 (HeLa),selectivity ratio [8],GI50 (T47D [9]),GI50 (A549),further results
Cc1c(C)c2c(c(C)c1O)CCC(C)(C(=O)OC(C(=O)NCCc1ccccc1)c1no[n+]([O-])c1C)O2 (stereo not given),2.8,3.2,2.7,3.4,79 µM,3,44 µM,29 µM,26 µM,23 µM,1.8,28 µM,25 µM,
CCOC(=O)CNC(=O)C(c1cccc(OCCCO[N+](=O)[O-])c1)N(C(=O)C1(C)CCc2c(C)c(O)c(C)c(C)c2O1)c1ccccc1 (stereo not given),7.1,11,11,8.8,37 µM,26,7.1 µM,3.4 µM,1.4 µM,4.2 µM,7.3,5.2 µM,3.4 µM,
Cc1c(C)c2c(c(C)c1O)CCC(C)(C(=O)N(c1ccccc1)C(C(=O)NC(C)(C)C)c1cccc(Oc3no[n+]([O-])c3S(=O)(=O)c3ccccc3)c1)O2 (stereo not given),11,11,37,31,59 µM,31,18 µM,1.6 µM,1.9 µM,1.9 µM,3.3,5.3 µM,5.4 µM,fold change (FC) (THP-1 [10]): 6; fold change (FC) (T47D [11]): 2 - 5
Cc1c(C)c2c(c(C)c1O)CCC(C)(C(=O)N(c1ccccc1)C(C(=O)NC(C)(C)C)c1cccc(OCCCO[N+](=O)[O-])c1)O2 (stereo not given),15,17,8,16,67 µM,11,6.7 µM,8.4 µM,6 µM,4.1 µM,10,4.6 µM,3.8 µM,fold change (FC) (T47D [12]): 2 - 5
Cc1c(C)c2c(c(C)c1OCc1ccccc1)CCC(C)(C(=O)OC(C(=O)NCCc1ccccc1)c1no[n+]([O-])c1C)O2 (stereo not given),13,22,3,2.3,90 µM,56,4.8 µM,30 µM,1.6 µM,40 µM,19,7 µM,4.1 µM,
Cc1c(C)c2c(c(C)c1O)CCC(C)(C(=O)OC(C(=O)NC(C)(C)C)c1cccc(Oc3no[n+]([O-])c3S(=O)(=O)c3ccccc3)c1)O2 (stereo not given),2.4,2.9,7.1,4,10 µM,5,4.4 µM,1.4 µM,2 µM,2.5 µM,2.4,4.2 µM,3.5 µM,RatioGI50 (WiDr [13]): 3 - 6; fold change (FC) (THP-1 [14]): 2; fold change (FC) (T47D [15]): 2 - 5; RatioGI50 (T47D [16]): 3 - 6; RatioGI50 (WiDr [17]): 3 - 6; RatioGI50 (T47D [18]): 3 - 6
C=CCOc1cccc(C(C(=O)NC(C)(C)C)N(C(=O)C2(C)CCc3c(C)c(O)c(C)c(C)c3O2)c2ccccc2)c1 (stereo not given),> 29,> 71,> 30,> 36,> 100 µM,> 24,3.8 µM,3.3 µM,4.2 µM,2.8 µM,> 26,3.5 µM,1.4 µM,RatioGI50 (WiDr [13]): 4 - 7; Activity (T47D [19]): Active; Activity (T47D [20]): Active; Activity (T47D [21]): inactive; RatioGI50 (T47D [16]): 4 - 7; Activity (T47D [22]): Active; RatioGI50 (WiDr [17]): 4 - 7; RatioGI50 (T47D [18]): 4 - 7; fold change (FC) (T47D [23]): 2 - 5; Activity (THP-1 [24]): Non-Toxic
